Reference: patent publication US20210030718A1, “COMBINATIONS FOR TREATING CANCER” (ASTRAZENECA AB, priority 2018, published 2021)

Assays:
OCILy10 tumor cells = test: OCILy10 subcutaneous tumor model, efficacy study; format: in vivo, C.B.-17 SCID female mice; conditions: OCILy10 s.c. in C.B.-17 SCID mice; acalabrutinib 12.5 mg/kg po bid; AZD5991 IV once weekly
Protocol: 5×10^6 OCILy10 tumor cells were injected subcutaneously in the right flank of C.B.-17 SCID female mice in a volume of 0.1 mL containing 50% matrigel. Tumor volumes (measured by caliper), animal body weight, and tumor condition were recorded twice weekly for the duration of the studies. The tumor volume was calculated using the formula: length (mm)×width (mm)^2×0.52. For efficacy studies, growth inhibition from the start of treatment was assessed by comparison of the differences in tumor volume between control and treated groups. Dosing began when mean tumor size reached approximately 150-180 mm^3. CR=complete response. AZD5991 was formulated in 30% HPBCD (hydroxypropyl beta-cyclodextrin) in water for injection and adjusted to pH 9.0 up to a concentration of 30 mg/mL. AZD5991 was dosed IV once weekly. Acalabrutinib was formulated in 0.5% hydroxypropyl methyl cellulose/0.2% Tween 80, and dosed twice a day (bid) on an 8/16 hr split as an oral (po) administration at a volume of 10 mL/kg at a dose of 12.5 mg/kg.

cleaved caspase-3 = test: Western blot time course of cleaved caspase-3 in OCILy10 and TMD8; format: cell-based; conditions: 1 μM AZD5991 for 8 hr, alone or after 24-hour pre-treatment with 100 nM acalabrutinib
Protocol: Two BTK inhibitor-sensitive ABC-DLBCL cell lines (OCILy10 and TMD8) were treated for an 8-hour time course with either 1 μM AZD5991 alone or following a 24-hour pre-treatment with 100 nM acalabrutinib (since exposure for 24 hours was sufficient to induce maximal BH3-only protein levels). Cells were harvested for protein lysates at varying time points (0, 0.5, 1, 2, 4, and 8 hours) post-AZD5991 treatment, normalized for protein concentration using the BCA Protein Assay Kit, and run for western blots according to standard protocols. To ensure expected target engagement of acalabrutinib, the blots were probed for the proximal biomarker for activated BTK (pBTK Y223). To gauge the time to induction of apoptosis, cleaved caspase-3 was also assessed. A loading control (vinculin) was also utilized for normalization.

Bim and Bmf = test: Western blot of BH3-only protein levels in DLBCL cell lines; format: cell-based; conditions: 100 nM for 24 hours; OCILy10 and TMD8 relative to the insensitive cell line Karpas422
Protocol: OCILy10, TMD8, and Karpas422 were treated with either vehicle or 100 nM acalabrutinib for 2-72 hours. Protein lysates were harvested at multiple time points in that interval, protein concentration was determined using the BCA Protein Assay Kit, and western blots were performed according to standard protocol to assess the effects on Bcl2 family protein levels. Each sample was normalized to vinculin as a loading control, and then protein levels of acalabrutinib-treated samples were calculated relative to those of vehicle-treated samples.
Each of the three cell lines were then treated with 100 nM acalabrutinib for 24 hours, and BH3-only protein levels were assessed. The levels of pro-apoptotic BH3-only proteins Bim and Bmf were increased in the two acalabrutinib-sensitive DLBCL cell lines relative to the insensitive cell line, priming the cells for apoptosis (FIG. 1). Acalabrutinib increases protein levels of pro-apoptotic proteins, including Bim and Bmf, in BTK inhibitor-sensitive DLBCL cell lines that leads to priming of cells for apoptosis. The results of Example 1 illustrate that diffuse large B-cell […] (DLBCL) cell lines display a differential sensitivity to acalabrutinib.

Karpas422 = test: CellTiter-Glo viability, 72 hours; format: cell-based; conditions: Homo sapiens, KARPAS-422, Karpas422, GCB-DLBCL
Protocol: (§1) Two ABC-DLBCL (OCILy10 and TMD8) cell lines and one GCB-DLBCL (Karpas422) cell line were treated with either vehicle (DMSO) or a 10-point, ½ log serially dilution of acalabrutinib for 72 hours with a CellTiter-Glo viability readout.

OCILy10 = test: CellTiter-Glo viability, 72 hours; format: cell-based; conditions: Homo sapiens, OCI-Ly10, OCILy10, ABC-DLBCL
Protocol: as §1

TMD8 = test: CellTiter-Glo viability, 72 hours; format: cell-based; conditions: Homo sapiens, TMD8, ABC-DLBCL
Protocol: as §1

| Structure (SMILES) | tumor growth inhibition (OCILy10 tumor cells) | induction of cleaved caspase (cleaved caspase-3) | levels of pro-apoptotic BH3-only proteins Bim and Bmf (Bim and Bmf) | GI50 (Karpas422) | GI50 (OCILy10) | GI50 (TMD8) |
| --- | --- | --- | --- | --- | --- | --- |
| Cc1c2c(nn1C)CSCc1cc(n(C)n1)CSc1cc(c3ccccc3c1)OCCCc1c(C(=O)O)n(C)c3c-2c(Cl)ccc13 (atropisomer, axis not shown; (Ra)) [AZD5991, (Ra)-17-chloro-5,13,14,22-tetramethyl-28-oxa-2,9-dithia-5,6,12,13,22-pentaazaheptacyclo[27.7.1.1^4,7.0^11,15.0^16,21.0^20,24.0^30,35]octatriaconta-1(37),4(38),6,11,14,16,18,20,23,29,31,33,35-tridecaene-23-carboxylic acid] | 44% | no positive caspase activation |  |  |  |  |
| CC#CC(=O)N1CCC[C@H]1c1nc(-c2ccc(C(=O)Nc3ccccn3)cc2)c2c(N)nccn12 [acalabrutinib, (S)-4-(8-amino-3-(1-but-2-ynoylpyrrolidin-2-yl)imidazo[1,5-a]pyrazin-1-yl)-N-(pyridin-2-yl)benzamide] | 79% |  | increased | > 31000 nM | 10 nM | 60 nM |
